# Values joined by “and” are separate entries in the source; they are usually repeats but may differ in a detail not shown here. Equal entries are not always repeated.
# How the values were obtained:
# MONOMAC-6 cells = assay: MTS cell viability, MONOMAC-6; format: cell-based; conditions: 48 hrs
# Method: In order to identify chemical compounds that may target TET1 signaling, the drug-sensitivity/gene expression database of a total of 20,602 chemical compounds in the NCI-60 collection of cancer cell samples was searched.
# All cell lines were authenticated through STR profiling yearly.
# (§1) These experiments were conducted as described previously (Jiang, X., et al., Blockade of miR-150 Maturation by MLL-Fusion/MYC/LIN-28 Is Required for MLL-Associated Leukemia, Cancer Cell 22:524-35 (2012); Li, Z., et al., miR-196b directly targets both HOXA9/MEIS1 oncogenes and FAS tumour suppressor in MLL-rearranged leukaemia, Nat Commun 2:688 (2012)) with ApoLive-Glo Multiplex Assay Kit, or CellTiter 96 AQueous Non-Radioactive Cell Proliferation Assay Kit (Promega, Madison, Wis.).
# TET1 = TET1 expression by qPCR in AML cell lines; format: cell-based
# Method: FIG. 1. […] Cell viability was analyzed by MTS 48 hours post-treatment. […] TET1 expression levels were detected by qPCR 48 hrs post-treatment. […] TET1 expression levels (e) and cell viability (f) were detected 24 hrs post-treatment. *, P<0.05, two-tailed t-test. MM6, MONOMAC-6. Error bar indicates SD of triplicate experiments.
# Total RNA was extracted with the miRNeasy extraction kit (Qiagen) and was used as template for quantitative RT-PCR (qPCR) analysis.
# AE9a-AML = assay: AML-ETO9a (AE9a) AML secondary BMT mouse model; format: in vivo, mice; conditions: for median survival: 2.5 mg/kg i.p. once per day for 10 days, control 46 days
# Method: FIG. 2. […] The secondary BMT recipient mice were transplanted with leukemic BM blast cells collected from primary MLL-AF9 AML mice. […] Kaplan-Meier curves are shown. The P values were determined by log-rank test. (b) Wright-Giemsa staining of mouse peripheral blood (PB) and BM, or hematoxylin and eosin (H&E) staining of mouse spleen and liver of the treated or control leukemic mice. (c,d) Tet1/2/3 gene expression levels (c) or Tet1 protein level (d) in BM blast cells of the treated or control leukemic mice. *, P<0.05, two-tailed t-test. Error bar indicates SD of triplicate experiments. […] The secondary BMT recipient mice were transplanted with leukemic BM blast cells collected from the primary AE9a-AML mice. […] Kaplan-Meier curves are shown. The P values were determined by log-rank test.
# Secondary mouse BMT was carried out as described previously. […] For the “5+3” treatment, AraC (Cytarabine, Bedford Laboratories) and DNR (Daunorubicin, Sigma-Aldrich) were reconstituted with PBS, filtered, and stored in aliquots at −20° C. The “5+3” therapy regimen consists of five consecutive daily doses of 50 mg/kg AraC along with 3 mg/kg DNR daily during the first three days of treatment. Drugs were delivered by tail vein and intraperitoneal injection. Weights were taken daily during treatment and doses were recalculated to ensure the mice received a consistent dose of 50 mg/kg AraC and 3 mg/kg DNR every treatment.
# [1] = system: wild-type mouse BM progenitor cells transduced with MLL-AF9; assay: Viability of MLL-AF9-transduced wild-type BM progenitor cells; format: cell-based; conditions: 48 hrs
# Method: (§2) FIG. 5. […] Gene expression levels are shown. […] ChIP-qPCR assay was carried out 48 hrs after drug treatment. Enrichment of STAT3, STAT5, or IgG at the TET1 promoter region and other regions are shown. […] BM progenitor cells of wild-type or Tet1^−/− mice were retrovirally transduced with MLL-AF9. […] Relative cell viabilities are shown. (m) Cre-Tet1f mouse BM progenitor cells were retrovirally transduced with MLL-AF9. […] Relative cell viability is shown. (n-o) THP-1 (n) and MONOMAC-6 (o) cells were infected with lentivirus of pLenti-puro vector-based Tet1 construct. […] Relative cell viability is shown. *, P<0.05; **, P<0.01, two-tailed t-test. Error bar indicates SD of triplicate experiments.
# siRNAs were transfected into MONOMAC-6 cells with Cell Line Nucleofector Kit V following program T-037, using the Amaxa Nucleofector Technology (Amaxa Biosystems, Berlin, Germany). Experiments were performed 48 h after transfection. Retrovirus infection of mouse BM progenitor cells were conducted as described previously with some modifications. Briefly, retrovirus vectors were co-transfected with pCL-Eco packaging vector (IMGENEX, San Diego, Calif.) into HEK293T cells using Effectene Transfection Reagent (Qiagen, Valencia, Calif.) to produce retrovirus. […]
# [2] = system: Tet1 deficient mouse BM progenitor cells transduced with MLL-AF9; assay: Viability of MLL-AF9-transduced Tet1 deficient BM progenitor cells; format: cell-based; conditions: 48 hrs; for cell viability: Tet1 deficient counterpart cells; for viability of cells with induced Tet1 deficiency: conditional Tet1 knockout, polyI:C induced, 500 nM
# Method: as §2
# FIG. 13. […] (a-d) BM progenitor cells of wild-type or Tet1^−/− mice were retrovirally transduced with MLL-AF9. Infected cells were treated with 200 nM JAK/STAT inhibitors individually, including Pacritinib (a), KW-2449 (b), Stattic (c) or sc-355979 (d), for 48 hrs. Relative cell viabilities are shown. (e) Cre-Tet1^fl/fl mouse BM progenitor cells were retrovirally transduced with MLL-AF9. […] Cell viabilities (normalized to non-induced Cre-Tet1^fl/fl treated with DMSO control) are shown. ‘K, P<0.05; ‘K‘K, P<0.01, two-tailed t-test
# siRNAs were transfected into MONOMAC-6 cells with Cell Line Nucleofector Kit V following program T-037, using the Amaxa Nucleofector Technology (Amaxa Biosystems, Berlin, Germany). Experiments were performed 48 h after transfection. Retrovirus infection of mouse BM progenitor cells were conducted as described previously with some modifications. Briefly, retrovirus vectors were co-transfected with pCL-Eco packaging vector (IMGENEX, San Diego, Calif.) into HEK293T cells using Effectene Transfection Reagent (Qiagen, Valencia, Calif.) to produce retrovirus. BM cells were harvested from a cohort of 4- to 6-week-old C57BL/6, Tet1^−/−, or Cre-Tet1^fl/fl donor mice after five days of 5-fluorouracil (5-FU) treatment, and primitive hematopoietic progenitor cells were enriched with Mouse Lineage Cell Depletion Kit (Miltenyi Biotec Inc., Auburn, Calif.). An aliquot of enriched hematopoietic progenitor cells was added to retroviral supernatant together with polybrene in cell culture plates, which were centrifuged at 2,000 g for 2 hours at 32° C. (i.e., spinoculation) and then the medium was replaced with fresh media and incubated for 20 hours at 37° C. Next day, the same procedure was repeated once. Infected cells were grown in RPMI 1640 medium containing 10 ng/mL murine recombinant IL-3, 10 ng/mL IL-6, 100 ng/mL murine recombinant SCF (R&D Systems, Minneapolis, Minn.), along with 1.0 mg/ml of G418. Experiments were performed 7 days after infection.
# as §1
# [3] = system: BM cells of leukemic mice with MLL-AF9 fusion (MA9-AML) or FLT3-ITD/NPM1^mut; assay: MTS and apoptosis assays in BM cells of leukemic mice; format: cell-based; conditions: 50 nM; 3 days
# Method: FIG. 14. […] BM cells of leukemic mice with MLL-AF9 fusion (MA9-AML) or FLT3-ITD/NPM1^mut, and c-Kit^+ HSPCs from a pool of 6 healthy donor mice were cultured in liquid medium. […] MTS (a), apoptosis assays (b) and qPCR (c) were conducted 3 days after cell seeding or drug treatments. Error bar indicates SD of triplicate experiments.
# as §1
SMILES,"IC50 (MONOMAC-6 cells; Homo sapiens, MONO-MAC-6, MONOMAC-6 cells, unit inferred, read-out: IC50 MMC6) [nM]","TET1 transcription (TET1; 25 nM, 24 hours, MONOMAC-6, THP-1 and KOCL-48 cells)","level of TET1 expression (TET1; TET1-high AML cells, 300 nM, qPCR 48 hrs)",median survival (AE9a-AML),cell viability [1],cell viability [2],viability of cells with induced Tet1 deficiency [2],viability of AML cells [3],MONOMAC-6 cell viability among 30 analogues (MONOMAC-6 cells; MTS),"expression of TET1, TET2, TET3 (TET1; MONOMAC-6 cells, 500 nM, 48 hrs)","prolongation of median survival (AE9a-AML; versus control, 2.5 mg/kg i.p. 10 days)"
"COc1cc(C(c2cc3c(cc2O)OCO3)N2CCCC2)cc(OC)c1OC (stereo not shown) [NSC-370284, 6-(1-Pyrrolidinyl(3,4,5-trimethoxyphenyl)methyl)-1,3-benzodioxol-5-ol]",0.385,significant down-regulation,significantly repressed,122 days and 114 days,remarkable repression of cell viability,no such inhibition,no significant effect,dramatically suppressed,–,–,–
"CC(C)(C)c1cc(C(c2cc3c(cc2O)OCO3)N2CCOCC2)cc(C(C)(C)C)c1O (stereo not shown) [UC-514321, 6-{[4-Hydroxy-3,5-bis(2-methyl-2-propanyl)phenyl](4-morpholinyl)methyl}-1,3-benzodioxol-5-ol]",–,–,–,160 days,remarkable repression of cell viability,no such inhibition,no significant effect,dramatically suppressed,most significantly repressed,"significantly repressed expression of TET1, but not TET2 or TET3",over 3 folds
